Species on record: Rattus norvegicus
Assay: Open TG-GATES - Regimen: Daily Repeat
Format: toxicity, organism-based, Sprague-Dawley
Parameters: regimen Daily Repeat, gender Male, age 6 weeks
Conditions: in vivo, po, route gavage; for APTT / Bas / Eos / Fbg / Hb / Ht / Lym / MCH / MCHC / MCV / Mono / Neu / PT / Plat / RBC / Ret / WBC: tissue Blood; for KIDNEY_L / KIDNEY_R / KIDNEY_TOTAL: tissue Kidney; for LIVER: tissue Liver; for A/G / ALP / ALT / AST / BUN / CRE / Ca / Cl / DBIL / GLC / IP / K / LDH / Na / PL / RALB / TBIL / TC / TG / TP / gamma-GTP: tissue Plasma
[1] = 300 mg/kg, 72 h, dose level Middle, time 3 day
[2] = 300 mg/kg, […], dose level Middle, time 7 day
[3] = 300 mg/kg, […], dose level Middle, time 14 day
[4] = 300 mg/kg, […], dose level Middle, time 28 day
[5] = 1000 mg/kg, 72 h, dose level High, time 3 day
[6] = 1000 mg/kg, […], dose level High, time 7 day
[7] = 1000 mg/kg, […], dose level High, time 14 day
[8] = 1000 mg/kg, […], dose level High, time 28 day

O=C(O)c1cc(/N=N/c2ccc(S(=O)(=O)Nc3ccccn3)cc2)ccc1O [SULFASALAZINE]
TERMINAL_BW [1]: 236.9 g
APTT [1]: 18.6 s
Bas [1]: 0%
Eos [1]: 1%
Fbg [1]: 213 mg/dL
Hb [1]: 13.2 g/dL
Ht [1]: 38.4%
Lym [1]: 81.6%
MCH [1]: 21.8 pg
MCHC [1]: 34.5%
MCV [1]: 63.2 fL
Mono [1]: 2.2%
Neu [1]: 14%
PT [1]: 12.5 s
Plat [1]: 146.1 x10_4/uL
RBC [1]: 607.4 x10_4/ul
Ret [1]: 5.7%
WBC [1]: 109.3 x10_2/uL
KIDNEY_L [1]: 1 g
KIDNEY_R [1]: 1 g
KIDNEY_TOTAL [1]: 2 g
LIVER [1]: 11.1 g
A/G [1]: 1.5
ALP [1]: 1050.4 IU/L
ALT [1]: 37 IU/L
AST [1]: 69.6 IU/L
BUN [1]: 16.4 mg/dL
CRE [1]: 0.4 mg/dL
Ca [1]: 10.9 mg/dL
Cl [1]: 103.2 meq/L
DBIL [1]: 0.092 mg/dL
GLC [1]: 202.6 mg/dL
IP [1]: 6.8 mg/dL
K [1]: 3.9 meq/L
LDH [1]: 257.2 IU/L
Na [1]: 141 meq/L
PL [1]: 156.6 mg/dL
RALB [1]: 3.4 g/dL
TBIL [1]: 0.2 mg/dL
TC [1]: 81 mg/dL
TG [1]: 86.6 mg/dL
TP [1]: 5.6 g/dL
gamma-GTP [1]: 1.4 IU/L
TERMINAL_BW [2]: 264.7 g
TERMINAL_BW [3]: 309.2 g
TERMINAL_BW [4]: 365.3 g
APTT [2]: 18.5 s
Bas [2]: 0%
Eos [2]: 1%
Fbg [2]: 212.4 mg/dL
Hb [2]: 13.6 g/dL
Ht [2]: 39.4%
Lym [2]: 79.4%
MCH [2]: 21.4 pg
MCHC [2]: 34.5%
MCV [2]: 62 fL
Mono [2]: 2.6%
Neu [2]: 15.6%
PT [2]: 12.9 s
Plat [2]: 124.9 x10_4/uL
RBC [2]: 636.2 x10_4/ul
Ret [2]: 5.3%
WBC [2]: 123 x10_2/uL
APTT [3]: 18.5 s
Bas [3]: 0%
Eos [3]: 1%
Fbg [3]: 214.6 mg/dL
Hb [3]: 14.8 g/dL
Ht [3]: 41.7%
Lym [3]: 83.4%
MCH [3]: 21.2 pg
MCHC [3]: 35.4%
MCV [3]: 59.8 fL
Mono [3]: 2.6%
Neu [3]: 11.6%
PT [3]: 12.7 s
Plat [3]: 114.3 x10_4/uL
RBC [3]: 698 x10_4/ul
Ret [3]: 4.3%
WBC [3]: 109.2 x10_2/uL
APTT [4]: 18.2 s
Bas [4]: 0%
Eos [4]: 1%
Fbg [4]: 199 mg/dL
Hb [4]: 15.2 g/dL
Ht [4]: 42.2%
Lym [4]: 81.2%
MCH [4]: 20.1 pg
MCHC [4]: 35.9%
MCV [4]: 56 fL
Mono [4]: 2.4%
Neu [4]: 14.4%
PT [4]: 12.8 s
Plat [4]: 100.8 x10_4/uL
RBC [4]: 753.6 x10_4/ul
Ret [4]: 3%
WBC [4]: 88.7 x10_2/uL
KIDNEY_L [2]: 1.1 g
KIDNEY_R [2]: 1.1 g
KIDNEY_TOTAL [2]: 2.2 g
KIDNEY_L [3]: 1.2 g
KIDNEY_R [3]: 1.2 g
KIDNEY_TOTAL [3]: 2.4 g
KIDNEY_L [4]: 1.3 g
KIDNEY_R [4]: 1.3 g
KIDNEY_TOTAL [4]: 2.6 g
LIVER [2]: 11.8 g
LIVER [3]: 13 g
LIVER [4]: 13.6 g
A/G [2]: 1.7
ALP [2]: 838.8 IU/L
ALT [2]: 36.8 IU/L
AST [2]: 66.2 IU/L
BUN [2]: 15.8 mg/dL
CRE [2]: 0.4 mg/dL
Ca [2]: 10.7 mg/dL
Cl [2]: 103.6 meq/L
DBIL [2]: 0.088 mg/dL
GLC [2]: 213.8 mg/dL
IP [2]: 7 mg/dL
K [2]: 3.7 meq/L
LDH [2]: 186.6 IU/L
Na [2]: 140.8 meq/L
PL [2]: 144.4 mg/dL
RALB [2]: 3.5 g/dL
TBIL [2]: 0.1 mg/dL
TC [2]: 70.8 mg/dL
TG [2]: 83 mg/dL
TP [2]: 5.6 g/dL
gamma-GTP [2]: 1.4 IU/L
A/G [3]: 1.4
ALP [3]: 901 IU/L
ALT [3]: 37.2 IU/L
AST [3]: 64.8 IU/L
BUN [3]: 18 mg/dL
CRE [3]: 0.5 mg/dL
Ca [3]: 10.7 mg/dL
Cl [3]: 102.8 meq/L
DBIL [3]: 0.094 mg/dL
GLC [3]: 190.6 mg/dL
IP [3]: 7.1 mg/dL
K [3]: 3.6 meq/L
LDH [3]: 204.6 IU/L
Na [3]: 141 meq/L
PL [3]: 151.2 mg/dL
RALB [3]: 3.5 g/dL
TBIL [3]: 0.2 mg/dL
TC [3]: 70.4 mg/dL
TG [3]: 105.8 mg/dL
TP [3]: 6 g/dL
gamma-GTP [3]: 2 IU/L
A/G [4]: 1.5
ALP [4]: 668.8 IU/L
ALT [4]: 37.4 IU/L
AST [4]: 63.6 IU/L
BUN [4]: 18 mg/dL
CRE [4]: 0.5 mg/dL
Ca [4]: 10.3 mg/dL
Cl [4]: 103.8 meq/L
DBIL [4]: 0.082 mg/dL
GLC [4]: 214.2 mg/dL
IP [4]: 6.3 mg/dL
K [4]: 3.3 meq/L
LDH [4]: 134.4 IU/L
Na [4]: 141.8 meq/L
PL [4]: 128.6 mg/dL
RALB [4]: 3.5 g/dL
TBIL [4]: 0.1 mg/dL
TC [4]: 59.6 mg/dL
TG [4]: 92.6 mg/dL
TP [4]: 5.9 g/dL
gamma-GTP [4]: 1.2 IU/L
TERMINAL_BW [5]: 221.5 g
APTT [5]: 18 s
Bas [5]: 0%
Eos [5]: 0.8%
Fbg [5]: 215 mg/dL
Hb [5]: 14.4 g/dL
Ht [5]: 42%
Lym [5]: 87.2%
MCH [5]: 21.4 pg
MCHC [5]: 34.2%
MCV [5]: 62.4 fL
Mono [5]: 2%
Neu [5]: 8.8%
PT [5]: 13.1 s
Plat [5]: 127.1 x10_4/uL
RBC [5]: 674.2 x10_4/ul
Ret [5]: 3.4%
WBC [5]: 93.4 x10_2/uL
KIDNEY_L [5]: 1 g
KIDNEY_R [5]: 1 g
KIDNEY_TOTAL [5]: 1.9 g
LIVER [5]: 10.2 g
A/G [5]: 1.6
ALP [5]: 888.8 IU/L
ALT [5]: 49.4 IU/L
AST [5]: 77.4 IU/L
BUN [5]: 20.8 mg/dL
CRE [5]: 0.4 mg/dL
Ca [5]: 10.8 mg/dL
Cl [5]: 103.6 meq/L
DBIL [5]: 0.094 mg/dL
GLC [5]: 187.4 mg/dL
IP [5]: 6.8 mg/dL
K [5]: 3.6 meq/L
LDH [5]: 252.8 IU/L
Na [5]: 141 meq/L
PL [5]: 149.2 mg/dL
RALB [5]: 3.5 g/dL
TBIL [5]: 0.1 mg/dL
TC [5]: 78.4 mg/dL
TG [5]: 70 mg/dL
TP [5]: 5.6 g/dL
gamma-GTP [5]: 1.4 IU/L
TERMINAL_BW [6]: 246.1 g
TERMINAL_BW [7]: 276.8 g
TERMINAL_BW [8]: 334.1 g
APTT [6]: 19.3 s
Bas [6]: 0%
Eos [6]: 0.6%
Fbg [6]: 197 mg/dL
Hb [6]: 14.1 g/dL
Ht [6]: 40.8%
Lym [6]: 86.2%
MCH [6]: 21.2 pg
MCHC [6]: 34.7%
MCV [6]: 61.1 fL
Mono [6]: 2.6%
Neu [6]: 9.6%
PT [6]: 13.6 s
Plat [6]: 106.1 x10_4/uL
RBC [6]: 667.6 x10_4/ul
Ret [6]: 4.5%
WBC [6]: 106.7 x10_2/uL
APTT [7]: 19.4 s
Bas [7]: 0%
Eos [7]: 0.8%
Fbg [7]: 200.6 mg/dL
Hb [7]: 15.2 g/dL
Ht [7]: 42.7%
Lym [7]: 85.4%
MCH [7]: 20.2 pg
MCHC [7]: 35.6%
MCV [7]: 57 fL
Mono [7]: 1.8%
Neu [7]: 10.8%
PT [7]: 13.4 s
Plat [7]: 106.3 x10_4/uL
RBC [7]: 750.2 x10_4/ul
Ret [7]: 3%
WBC [7]: 132.9 x10_2/uL
APTT [8]: 18.9 s
Bas [8]: 0%
Eos [8]: 1%
Fbg [8]: 206.2 mg/dL
Hb [8]: 14.9 g/dL
Ht [8]: 41.8%
Lym [8]: 84%
MCH [8]: 19.5 pg
MCHC [8]: 35.6%
MCV [8]: 54.7 fL
Mono [8]: 1.8%
Neu [8]: 12.6%
PT [8]: 13.3 s
Plat [8]: 101.4 x10_4/uL
RBC [8]: 763.6 x10_4/ul
Ret [8]: 4.2%
WBC [8]: 116.9 x10_2/uL
KIDNEY_L [6]: 1 g
KIDNEY_R [6]: 1 g
KIDNEY_TOTAL [6]: 2.1 g
KIDNEY_L [7]: 1.1 g
KIDNEY_R [7]: 1.2 g
KIDNEY_TOTAL [7]: 2.2 g
KIDNEY_L [8]: 1.3 g
KIDNEY_R [8]: 1.3 g
KIDNEY_TOTAL [8]: 2.6 g
LIVER [6]: 10.8 g
LIVER [7]: 11.1 g
LIVER [8]: 12.9 g
A/G [6]: 1.6
ALP [6]: 756.2 IU/L
ALT [6]: 46 IU/L
AST [6]: 74 IU/L
BUN [6]: 19.8 mg/dL
CRE [6]: 0.4 mg/dL
Ca [6]: 10.7 mg/dL
Cl [6]: 104.6 meq/L
DBIL [6]: 0.068 mg/dL
GLC [6]: 202.8 mg/dL
IP [6]: 7.2 mg/dL
K [6]: 3.4 meq/L
LDH [6]: 216.4 IU/L
Na [6]: 142.4 meq/L
PL [6]: 118 mg/dL
RALB [6]: 3.5 g/dL
TBIL [6]: 0.1 mg/dL
TC [6]: 63 mg/dL
TG [6]: 36.4 mg/dL
TP [6]: 5.7 g/dL
gamma-GTP [6]: 1.4 IU/L
A/G [7]: 1.6
ALP [7]: 776.2 IU/L
ALT [7]: 47.6 IU/L
AST [7]: 75.2 IU/L
BUN [7]: 21.2 mg/dL
CRE [7]: 0.5 mg/dL
Ca [7]: 10.7 mg/dL
Cl [7]: 103 meq/L
DBIL [7]: 0.068 mg/dL
GLC [7]: 186.2 mg/dL
IP [7]: 6.7 mg/dL
K [7]: 3.5 meq/L
LDH [7]: 196.6 IU/L
Na [7]: 141.8 meq/L
PL [7]: 122.2 mg/dL
RALB [7]: 3.7 g/dL
TBIL [7]: 0.1 mg/dL
TC [7]: 67.2 mg/dL
TG [7]: 33.8 mg/dL
TP [7]: 6.1 g/dL
gamma-GTP [7]: 1.4 IU/L
A/G [8]: 1.6
ALP [8]: 655 IU/L
ALT [8]: 44.8 IU/L
AST [8]: 68.6 IU/L
BUN [8]: 19.8 mg/dL
CRE [8]: 0.5 mg/dL
Ca [8]: 10.4 mg/dL
Cl [8]: 103.6 meq/L
DBIL [8]: 0.074 mg/dL
GLC [8]: 206.8 mg/dL
IP [8]: 6.2 mg/dL
K [8]: 3.3 meq/L
LDH [8]: 137.6 IU/L
Na [8]: 143.2 meq/L
PL [8]: 108.6 mg/dL
RALB [8]: 3.8 g/dL
TBIL [8]: 0.1 mg/dL
TC [8]: 62.2 mg/dL
TG [8]: 27.6 mg/dL
TP [8]: 6.1 g/dL
gamma-GTP [8]: 1.4 IU/L

— ChEMBL document CHEMBL3885861, “Open TG-GATES”
